As a reminder, the Kd is the equilibrium constant for the complex coming apart. A word on the stoichiometry N: it is the number of molecules, sites or subunits per partner or assembly.

Results on nine compounds are retold here after paper doi:10.1101/2024.12.30.630793 (bioRxiv, 2024).

One test deals with T1, Acb4 (SPO1 Acb4) (Bacillus phage SPO1, UniProt B6V2Y3).
T1 construct: gene 1.3; recombinant from E. coli BL21(DE3)-RIL, N-terminal 6xHis-SUMO2 fusion, tag cleaved with SENP2; 96 amino acids, homotetramer
T1 sequence (B6V2Y3 1-96): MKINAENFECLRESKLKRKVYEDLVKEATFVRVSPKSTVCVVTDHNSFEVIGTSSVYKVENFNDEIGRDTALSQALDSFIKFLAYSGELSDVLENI
Nature of the test: Electrophoretic mobility shift assay: titration of recombinant Acb4 with 20 nM alpha-32P-radiolabelled cyclic dinucleotide, 50 mM Tris-HCl pH 7.5, 5 mM MgCl2, 10 mM KCl, 1 mM TCEP, 30 min on ice, nondenaturing 6% PAGE, fraction bound fitted to a single binding model. The settings on record: n = 2.

The subject of the next test is Bacillus phage SPO1 Acb4. It is filed as binding. To be noted: for Kd: fraction bound fit to a single binding model, n = 2.
In test [1] the target is Bacillus phage SPO1 anti-CBASS 4 (Acb4) (Bacillus phage SPO1). The test can be described thus: SEC-MALS; recombinant apo SPO1 Acb4 in solution; complex migrates at ~42.3 kDa. On the technique in general: Size exclusion chromatography separates by hydrodynamic size, large species first.

Read-outs that look alike come from different tables or passages of the source.

For the compound `Nc1ncnc2c1ncn2[C@@H]1O[C@@H]2COP(=O)(O)O[C@H]3[C@@H](O)[C@H](n4ccc(=O)[nH]c4=O)O[C@@H]3COP(=O)(O)O[C@H]2[C@H]1O` [3′3′-cUA, 3′3′-cyclic UMP-AMP, c[U(3′,5′)pA(3′,5′)p]], the equilibrium dissociation constant (Kd) on Acb4 (SPO1 Acb4) came to 0.262 µM.
As for `Nc1ncnc2c1ncn2[C@@H]1O[C@@H]2COP(=O)(O)O[C@H]3[C@@H](O)[C@H](n4ccc(=O)[nH]c4=O)O[C@@H]3COP(=O)(O)O[C@H]2[C@H]1O` [3′3′-cUA], in the test with Bacillus phage SPO1 Acb4, the “interaction with Acb4 (EMSA)” value was “recognizes” and the Kd worked out at 0.262 µM.
Consider `Nc1nc2c(ncn2[C@@H]2O[C@@H]3COP(=O)(O)O[C@H]4[C@@H](O)[C@H](n5cnc6c(N)ncnc65)O[C@@H]4COP(=O)(O)O[C@H]3[C@H]2O)c(=O)[nH]1` [3′3′-cGAMP, 3′3′-cyclic GMP-AMP, c[G(3′,5′)pA(3′,5′)p]], for which the Kd on Acb4 (SPO1 Acb4) was 0.157 µM.
With “Bacillus phage SPO1 anti-CBASS 4 (Acb4) (natural protein)”, the stoichiometry N in test [1] was found to be 4.
On to `Nc1ncnc2c1ncn2[C@@H]1O[C@@H]2COP(=O)(O)O[C@H]3[C@@H](O)[C@H](n4cnc5c(N)ncnc54)O[C@@H]3COP(=O)(O)O[C@H]2[C@H]1O` [3′3′-cAA, 3′3′-c-di-AMP], for which the “interaction with Acb4 (EMSA)” value with Bacillus phage SPO1 Acb4 is on record as “No interaction was detected”.
In the case of `Nc1ncnc2c1ncn2[C@@H]1O[C@@H]2COP(=O)(O)O[C@@H]3[C@H](O)[C@@H](COP(=O)(O)O[C@H]2[C@H]1O)O[C@H]3n1ccc(=O)[nH]c1=O` [2′3′-cUA, 2′3′-cyclic UMP-AMP, c[U(2′,5′)pA(3′,5′)p]], at Acb4 (SPO1 Acb4), the dissociation constant Kd is 0.641 µM.
Turning to `Nc1ncnc2c1ncn2[C@@H]1O[C@@H]2COP(=O)(O)O[C@@H]3[C@H](O)[C@@H](COP(=O)(O)O[C@H]2[C@H]1O)O[C@H]3n1ccc(=O)[nH]c1=O` [2′3′-cUA], in the test on Bacillus phage SPO1 Acb4, the “interaction with Acb4 (EMSA)” value is given as “recognizes” and the dissociation constant (Kd) worked out at 0.641 µM.
`Nc1nc2c(ncn2[C@@H]2O[C@@H]3COP(=O)(O)O[C@H]4[C@@H](O)[C@H](n5cnc6c(N)ncnc65)O[C@@H]4COP(=O)(O)O[C@H]3[C@H]2O)c(=O)[nH]1` [3′3′-cGAMP, 3′3′-cyclic GMP-AMP]: the dissociation constant (Kd) on Bacillus phage SPO1 Acb4 is roughly 0.157 µM; at Bacillus phage SPO1 Acb4 (listed as 3'3'-cGAMP) it was 0.157 µM.
Turning to `Nc1nc2c(ncn2[C@@H]2O[C@@H]3COP(=O)(O)O[C@H]4[C@@H](O)[C@H](n5cnc6c(=O)[nH]c(N)nc65)O[C@@H]4COP(=O)(O)O[C@H]3[C@H]2O)c(=O)[nH]1` [3′3′-cGG, 3′3′-c-di-GMP], the “interaction with Acb4 (EMSA)” value in the test with Bacillus phage SPO1 Acb4 is “No interaction was detected”.
